Laboratory results: US9770026B2, “Substituted pyrimidine compound and uses thereof” (Shenyang Sinochem Agrochemicals R&D Co., Ltd., priority 2012, dated 2017)

Experiments:
Diamond back moth = assay: insecticidal activity against diamond back moth, airbrush spray; type: in vivo
Summary of the method: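 Airbrush leaf-disc spray test: both faces of 2 cm cabbage discs received 0.5 ml of test solution at 0.7 kg/cm^2. Solutions were made in acetone:methanol (1:1) and brought to concentration with 0.1% Tween 80 in water. Ten second-instar larvae per disc, triplicates, were held at 25° C and 60˜70% R.H., with mortality recorded at 72 hrs.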

armyworm = assay: bioactivity test against armyworm, airbrush spray; type: in vivo
[1] = tested on: Green peach aphids (Myzus Persicae Sulzer); assay: bioactivity test against green peach aphid, airbrush foliar spray; type: in vivo
Summary of the method: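 Death rate was scored at 48 hrs, held at 25±1 C and 60±5% RH, following airbrush foliar spray (0.5 mL, 10 psi) onto cabbage leaf discs bearing about 15-30 aphids. Test solutions: compound dissolved in 1:1 acetone:methanol, brought to concentration with 0.1% tween 80 water.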

carmine spider mite = assay: bioactivity test against carmine spider mite, airbrush spray; type: in vivo
Summary of the method: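 Broadbean seedlings infested with adult mites were sprayed with compound (acetone/methanol stock diluted in 0.1% Tween 80 water) by airbrush at 0.7 kg/cm^2, 0.5 ml. Three replicates were run. Mortality was scored after 72 hrs.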

corn rust = assay: protectant activity in vivo against corn rust
wheat powdery mildew = assay: protectant activity in vivo against wheat powdery mildew; details: for pest or weed control at 6.25 µg/mL: read-out: control effect against wheat powdery mildew (%), 6.25 mg/L; for pest or weed control at 25 µg/mL: read-out: control effect against wheat powdery mildew (%), 25 mg/L; for pest or weed control at 100 µg/mL: read-out: control effect against wheat powdery mildew (%), 100 mg/L; for pest or weed control at 400 µg/mL: read-out: control effect against wheat powdery mildew (%), 400 mg/L; for pest or weed control at 25 ppm: read-out: protectant activity against wheat powdery mildew in vivo, 25 ppm
cucumber downy mildew = assay: protectant activity in vivo against cucumber downy mildew; details: for pest or weed control at 25 ppm: read-out: protectant activity against cucumber downy mildew in vivo, 25 ppm
[2] = 100 ppm, mortality after 72 hrs
[3] = 600 ppm, mortality after 72 hrs
[4] = 72 h, 100 ppm, mortality after 72 h
[5] = 10 ppm, death rate after 48 hrs
[6] = 100 ppm, death rate after 48 hrs
[7] = 600 ppm, death rate after 48 hrs
[8] = Triticum aestivum, 168 h, protectant activity

CCc1ncnc(NCCc2ccc(Oc3ccc(C(F)(F)F)cn3)cc2)c1Cl [Compound I-6765]
control (test results against diamond back moth) (Diamond back moth; [2]): 100%
control (test results against diamond back moth) (Diamond back moth; [3]): 100%
control (test results against armyworm) (armyworm; 600 ppm, mortality after 72 h): 100%
pest or weed control at 100 ppm (armyworm; [4]): 100%
Insecticidal activity against peach aphid (%) ([1]; 1.25 mg/L, contrastive test): 84%
Insecticidal activity against peach aphid (%) ([1]; 2.5 mg/L, contrastive test): 100%
Insecticidal activity against peach aphid (%) ([1]; 5 mg/L, contrastive test): 100%
Insecticidal activity against peach aphid (%) ([1]; 10 mg/L, contrastive test): 100%
Insecticidal activity against peach aphid (%) ([1]; 100 mg/L, contrastive test): 100%
Insecticidal activity against peach aphid (%) ([1]; 600 mg/L, contrastive test): 100%
control (test results against green peach aphid) ([1]; 2.5 ppm, death rate after 48 hrs): 100%
control (test results against green peach aphid) ([1]; 5 ppm, death rate after 48 hrs): 100%
control (test results against green peach aphid) [1, 5]: 100%
control (test results against green peach aphid) [1, 6]: 100%
control (test results against green peach aphid) [1, 7]: 100%
Insecticidal activity against carmine spider mite (% ) (carmine spider mite; 10 mg/L, contrastive test): 100%
Insecticidal activity against carmine spider mite (% ) (carmine spider mite; 100 mg/L, contrastive test): 100%
Insecticidal activity against carmine spider mite (% ) (carmine spider mite; 600 mg/L, contrastive test): 100%
control against carmine spider mite (carmine spider mite; 10 ppm, mortality after 72 hrs): 100%
control against carmine spider mite (carmine spider mite; [2]): 100%
control against carmine spider mite (carmine spider mite; [3]): 100%
protectant activity against corn rust in vivo (corn rust; 100 ppm): 100%
protectant activity against corn rust in vivo (corn rust; 400 ppm): 100%
protectant activity against wheat powdery mildew in vivo (wheat powdery mildew; 6.25 ppm): 100%
protectant activity against wheat powdery mildew in vivo (wheat powdery mildew; 100 ppm): 100%
protectant activity against wheat powdery mildew in vivo (wheat powdery mildew; 400 ppm): 100%
pest or weed control at 6.25 µg/mL (wheat powdery mildew; [8]): 100%
pest or weed control at 25 µg/mL (wheat powdery mildew; [8]): 100%
pest or weed control at 100 µg/mL (wheat powdery mildew; [8]): 100%
pest or weed control at 400 µg/mL (wheat powdery mildew; [8]): 100%
pest or weed control at 25 ppm (wheat powdery mildew; Triticum aestivum, 168 h): 100%
protectant activity against cucumber downy mildew in vivo (cucumber downy mildew; 50 ppm): 100%
protectant activity against cucumber downy mildew in vivo (cucumber downy mildew; 100 ppm): 100%
protectant activity against cucumber downy mildew in vivo (cucumber downy mildew; 400 ppm): 100%
pest or weed control at 6.25 ppm (cucumber downy mildew; Cucumis sativus, 168 h, read-out: protectant activity against cucumber downy mildew in vivo, 6.25 ppm): 80 to 99%
pest or weed control at 12.5 ppm (cucumber downy mildew; Cucumis sativus, 168 h, read-out: protectant activity against cucumber downy mildew in vivo, 12.5 ppm): 80 to 99%
pest or weed control at 25 ppm (cucumber downy mildew; Cucumis sativus, 168 h): 100%

Cc1ncnc(NCCc2ccc(Oc3ccc(C#N)cc3F)cc2)c1Cl [II-204]
Insecticidal activity against diamond back moth (%) (Diamond back moth; 10 mg/L): 20%
Insecticidal activity against diamond back moth (%) (Diamond back moth; 100 mg/L): 100%
Insecticidal activity against diamond back moth (%) (Diamond back moth; 600 mg/L): 100%
control (test results against diamond back moth) (Diamond back moth; [2]): 100%
control (test results against diamond back moth) (Diamond back moth; [3]): 100%
Insecticidal activity against armyworm (%) (armyworm; 10 mg/L): 47%
Insecticidal activity against armyworm (%) (armyworm; 100 mg/L): 100%
Insecticidal activity against armyworm (%) (armyworm; 600 mg/L): 100%
control (test results against armyworm) (armyworm; 100 ppm, mortality after 72 h): 100%
control (test results against armyworm) (armyworm; 600 ppm, mortality after 72 h): 100%
Insecticidal activity against peach aphid (%) ([1]; 1.25 mg/L, contrastive test): 60%
Insecticidal activity against peach aphid (%) ([1]; 2.5 mg/L, contrastive test): 97%
Insecticidal activity against peach aphid (%) ([1]; 5 mg/L, contrastive test): 100%
Insecticidal activity against peach aphid (%) ([1]; 10 mg/L, contrastive test): 100%
Insecticidal activity against peach aphid (%) ([1]; 100 mg/L, contrastive test): 100%
Insecticidal activity against peach aphid (%) ([1]; 600 mg/L, contrastive test): 100%
control (test results against green peach aphid) ([1]; 5 ppm, death rate after 48 hrs): 100%
control (test results against green peach aphid) [1, 5]: 100%
control (test results against green peach aphid) [1, 6]: 100%
control (test results against green peach aphid) [1, 7]: 100%
Insecticidal activity against carmine spider mite (% ) (carmine spider mite; 2.5 mg/L): 60%
Insecticidal activity against carmine spider mite (% ) (carmine spider mite; 5 mg/L): 80%
Insecticidal activity against carmine spider mite (% ) (carmine spider mite; 10 mg/L, contrastive test): 100%
Insecticidal activity against carmine spider mite (% ) (carmine spider mite; 100 mg/L, contrastive test): 100%
Insecticidal activity against carmine spider mite (% ) (carmine spider mite; 600 mg/L, contrastive test): 100%
control against carmine spider mite (carmine spider mite; 10 ppm, mortality after 72 hrs): 100%
control against carmine spider mite (carmine spider mite; [2]): 100%
control against carmine spider mite (carmine spider mite; [3]): 100%
protectant activity against corn rust in vivo (corn rust; 25 ppm): 100%
protectant activity against corn rust in vivo (corn rust; 100 ppm): 100%
protectant activity against corn rust in vivo (corn rust; 400 ppm): 100%
control effect against wheat powdery mildew (%) (wheat powdery mildew; 6.25 mg/L, protectant activity): 100%
control effect against wheat powdery mildew (%) (wheat powdery mildew; 25 mg/L, protectant activity): 100%
control effect against wheat powdery mildew (%) (wheat powdery mildew; 100 mg/L, protectant activity): 100%
control effect against wheat powdery mildew (%) (wheat powdery mildew; 400 mg/L, protectant activity): 100%
protectant activity against wheat powdery mildew in vivo (wheat powdery mildew; 6.25 ppm): 100%
protectant activity against wheat powdery mildew in vivo (wheat powdery mildew; 25 ppm): 100%
protectant activity against wheat powdery mildew in vivo (wheat powdery mildew; 100 ppm): 100%
protectant activity against wheat powdery mildew in vivo (wheat powdery mildew; 400 ppm): 100%
protectant activity against cucumber downy mildew in vivo (cucumber downy mildew; 25 ppm): 100%
protectant activity against cucumber downy mildew in vivo (cucumber downy mildew; 50 ppm): 100%
protectant activity against cucumber downy mildew in vivo (cucumber downy mildew; 100 ppm): 100%
protectant activity against cucumber downy mildew in vivo (cucumber downy mildew; 400 ppm): 100%

CCc1ncnc(NCCc2ccc(Oc3ccc(Cl)cc3)cc2)c1Cl [II-297]
pest or weed control at 600 ppm (Diamond back moth; 72 h, 600 ppm, mortality after 72 hrs, read-out: control (test results against diamond back moth)): 100%
pest or weed control at 10 µg/mL (armyworm; 72 h, 10 mg/L, read-out: Insecticidal activity against armyworm (%)): 30%
pest or weed control at 100 µg/mL (armyworm; 72 h, 100 mg/L, read-out: Insecticidal activity against armyworm (%)): 95%
pest or weed control at 600 µg/mL (armyworm; 72 h, 600 mg/L, read-out: Insecticidal activity against armyworm (%)): 100%
pest or weed control at 100 ppm (armyworm; [4]): 80 to 99%
pest or weed control at 600 ppm (armyworm; 72 h, 600 ppm, mortality after 72 h): 100%
pest or weed control at 1.25 µg/mL ([1]; Myzus persicae, foliar, 48 h, 1.25 mg/L, contrastive test, read-out: Insecticidal activity against peach aphid (%)): 93%
pest or weed control at 2.5 µg/mL ([1]; Myzus persicae, foliar, 48 h, 2.5 mg/L, contrastive test, read-out: Insecticidal activity against peach aphid (%)): 100%
pest or weed control at 5 µg/mL ([1]; Myzus persicae, foliar, 48 h, 5 mg/L, contrastive test, read-out: Insecticidal activity against peach aphid (%)): 100%
pest or weed control at 10 µg/mL ([1]; Myzus persicae, foliar, 48 h, 10 mg/L, contrastive test, read-out: Insecticidal activity against peach aphid (%)): 100%
pest or weed control at 100 µg/mL ([1]; Myzus persicae, foliar, 48 h, 100 mg/L, contrastive test, read-out: Insecticidal activity against peach aphid (%)): 100%
pest or weed control at 600 µg/mL ([1]; Myzus persicae, foliar, 48 h, 600 mg/L, contrastive test, read-out: Insecticidal activity against peach aphid (%)): 100%
pest or weed control at 2.5 ppm ([1]; Myzus persicae, foliar, 48 h, 2.5 ppm, death rate after 48 hrs): 100%
pest or weed control at 5 ppm ([1]; Myzus persicae, foliar, 48 h, 5 ppm, death rate after 48 hrs): 100%
pest or weed control at 10 ppm ([1]; Myzus persicae, foliar, 48 h, 10 ppm, death rate after 48 hrs): 100%
pest or weed control at 100 ppm ([1]; Myzus persicae, foliar, 48 h, 100 ppm, death rate after 48 hrs): 100%
pest or weed control at 600 ppm ([1]; Myzus persicae, foliar, 48 h, 600 ppm, death rate after 48 hrs): 100%
pest or weed control at 10 µg/mL (carmine spider mite; Tetranychus cinnabarinus, 72 h, 10 mg/L, contrastive test, read-out: Insecticidal activity against carmine spider mite (% )): 74%
pest or weed control at 100 µg/mL (carmine spider mite; Tetranychus cinnabarinus, 72 h, 100 mg/L, contrastive test, read-out: Insecticidal activity against carmine spider mite (% )): 100%
pest or weed control at 600 µg/mL (carmine spider mite; Tetranychus cinnabarinus, 72 h, 600 mg/L, contrastive test, read-out: Insecticidal activity against carmine spider mite (% )): 100%
pest or weed control at 100 ppm (carmine spider mite; Tetranychus cinnabarinus, 72 h, 100 ppm, mortality after 72 hrs): 100%
pest or weed control at 600 ppm (carmine spider mite; Tetranychus cinnabarinus, 72 h, 600 ppm, mortality after 72 hrs): 100%
pest or weed control at 6.25 ppm (corn rust; Zea mays, 168 h, read-out: protectant activity against corn rust in vivo, 6.25 ppm): 80 to 99%
pest or weed control at 25 ppm (corn rust; Zea mays, 168 h, read-out: protectant activity against corn rust in vivo, 25 ppm): 80 to 99%
pest or weed control at 100 ppm (corn rust; Zea mays, 168 h, read-out: protectant activity against corn rust in vivo, 100 ppm): 100%
pest or weed control at 400 ppm (corn rust; Zea mays, 168 h, read-out: protectant activity against corn rust in vivo, 400 ppm): 100%
pest or weed control at 0.4 µg/mL (wheat powdery mildew; Triticum aestivum, 168 h, read-out: control effect against wheat powdery mildew (%), 0.4 mg/L, protectant activity): 30%
pest or weed control at 1.6 µg/mL (wheat powdery mildew; Triticum aestivum, 168 h, read-out: control effect against wheat powdery mildew (%), 1.6 mg/L, protectant activity): 40%
pest or weed control at 6.25 µg/mL (wheat powdery mildew; [8]): 90%
pest or weed control at 25 µg/mL (wheat powdery mildew; [8]): 100%
pest or weed control at 100 µg/mL (wheat powdery mildew; [8]): 100%
pest or weed control at 400 µg/mL (wheat powdery mildew; [8]): 100%
pest or weed control at 6.25 ppm (wheat powdery mildew; Triticum aestivum, 168 h, read-out: protectant activity against wheat powdery mildew in vivo, 6.25 ppm): 80 to 99%
pest or weed control at 25 ppm (wheat powdery mildew; Triticum aestivum, 168 h): 100%
pest or weed control at 100 ppm (wheat powdery mildew; Triticum aestivum, 168 h, read-out: protectant activity against wheat powdery mildew in vivo, 100 ppm): 100%
pest or weed control at 400 ppm (wheat powdery mildew; Triticum aestivum, 168 h, read-out: protectant activity against wheat powdery mildew in vivo, 400 ppm): 100%
pest or weed control at 25 µg/mL (cucumber downy mildew; Cucumis sativus, 168 h, read-out: control effect against cucumber downy mildew (%), 25 mg/L, protectant activity): 100%
pest or weed control at 50 µg/mL (cucumber downy mildew; Cucumis sativus, 168 h, read-out: control effect against cucumber downy mildew (%), 50 mg/L, protectant activity): 100%
pest or weed control at 100 µg/mL (cucumber downy mildew; Cucumis sativus, 168 h, read-out: control effect against cucumber downy mildew (%), 100 mg/L, protectant activity): 100%
pest or weed control at 400 µg/mL (cucumber downy mildew; Cucumis sativus, 168 h, read-out: control effect against cucumber downy mildew (%), 400 mg/L, protectant activity): 100%
pest or weed control at 25 ppm (cucumber downy mildew; Cucumis sativus, 168 h): 100%
pest or weed control at 50 ppm (cucumber downy mildew; Cucumis sativus, 168 h, read-out: protectant activity against cucumber downy mildew in vivo, 50 ppm): 100%
pest or weed control at 100 ppm (cucumber downy mildew; Cucumis sativus, 168 h, read-out: protectant activity against cucumber downy mildew in vivo, 100 ppm): 100%
pest or weed control at 400 ppm (cucumber downy mildew; Cucumis sativus, 168 h, read-out: protectant activity against cucumber downy mildew in vivo, 400 ppm): 100%
